How the values were obtained:
[1] = biological target: T1, recombinant p300 (1284-1660) (Homo sapiens, UniProt Q09472); assay: p300 HAT solution assay, H4 peptide substrate, DTNB detection; type: biochemical
T1 construct: p300 protein (residues 1284-1660); made in house
T1 sequence (Q09472 1284-1660): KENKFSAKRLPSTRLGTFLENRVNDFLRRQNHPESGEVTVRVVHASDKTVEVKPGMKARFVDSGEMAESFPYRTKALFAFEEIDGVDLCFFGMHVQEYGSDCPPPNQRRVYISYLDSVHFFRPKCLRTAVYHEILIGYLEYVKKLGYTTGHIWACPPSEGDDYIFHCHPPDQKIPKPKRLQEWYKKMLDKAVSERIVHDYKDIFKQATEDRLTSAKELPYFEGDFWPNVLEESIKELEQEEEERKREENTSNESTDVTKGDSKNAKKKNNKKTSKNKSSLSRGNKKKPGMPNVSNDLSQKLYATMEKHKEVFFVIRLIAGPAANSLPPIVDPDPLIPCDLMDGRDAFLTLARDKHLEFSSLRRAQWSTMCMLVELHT
Protocol: (A) Structures of compound 1a (spermidine CoA), and the acetylated side chain of a lysine residue of a polypeptide chain. (B) Inhibition of p300 acetylating activity as a function of 1a concentration. The catalytic domain of recombinant p300 (1284-1660) was assayed under steady state conditions using an N-terminal acetylated histone H4 peptide substrate, Ac-H4(1-19)-NH2. Closed circles represent experimental data points; plain line represents theoretical profile based on data reduction software (Prism) using a one site inhibition model. (C) In vitro assay of p300 activity using a 96-well assay kit (ActivMotif) and an H3 peptide substrate (5-23), according to manufacturer's instructions. Bars represent average of duplicates. BK=background (no enzyme); C=control (no inhibitor); [1a]=50 μM.
Assays were performed using the fluorescent HAT assay kit (Active Motif, Carlsbad, Calif.), an H3 peptide as substrate (residues 5-23), the p300 catalytic domain as enzyme, and 50 μM inhibitor in duplicate, according to the manufacturer's instructions. […] The reaction product, CoASH, was detected spectrophotometrically by reaction with 5,5′-dithiobis-2-nitrobenzoic acid (DTNB). Assays were carried out at 30° C. for 30 minutes, conditions which had previously been determined in kinetic assays to sufficient to achieve steady state. […]

H358 cells = assay: trypan blue exclusion viability assay; type: cell-based; details: human
Protocol: Cells were either labeled immediately before treatment (starting DNA synthesis rate), or subjected to the indicated treatments and then pulsed on successive days until day 4. DNA synthesis is represented as the percent of starting DNA synthesis rate. Viability was determined for each treatment condition 24 hours post-start of treatment by the trypan blue exclusion assay, with percentages of viable cells indicated to the right of the graph. […]
Cell viability, measured 18 hours after the start of each treatment by the trypan blue exclusion assay, a measure of cellular membrane integrity, confirmed that single agent treatment with either 1a or camptothecin had essentially no effect on cell viability (≧96% viability for untreated cells or single agent-treated cells).
The present inventors used 96-well viability assays as described in Saadatmandi et al (Cancer Gene Therapy (2002) 9:930-9) to examine the effect of 1a on DNA synthesis in H358 cells, as well as the combined effects of 1a and chemotherapeutic agents. […] Following the 6-hour labeling, cells were harvested and incorporation of [^3H]-thymidine was determined by scintillation counting. […] We measured cell viability 24 hours after the start of each treatment by the trypan blue exclusions assay, a measure of cellular membrane breakdown.

[2] = test system: BT20 breast cancer cell line (TNBC); assay: 3-day viability assay; type: cell-based; details: spd-2a increasing doses; camptothecin 5 nM
Source text: The effect of spd-2a on the BT20 breast cancer cell line derived form a spontaneous TNBC with wild-type BrCal was examined. […] Having previously established that spd-2a is a therapy sensitizer, the present inventors then examined the combined effects of spd-2a and camptothecin (the basis for the chemotherapeutic drug, Irinotecan).

| Structure (SMILES) | Ki ([1]; from IC50=Ki(1+Km/S)≅Ki under substrate excess, read-out: estimated Ki for p300 fragment) | IC50 ([1]; histone H4 N-terminal peptide substrate, inferred from inhibitory plot, one site model, read-out: IC50, p300HAT catalytic subunit activity) | cell viability, trypan blue exclusion (H358 cells; 18 h) | cell viability, trypan blue exclusion (H358 cells; 24 h) | 3-day viability, single agent [2] |
| --- | --- | --- | --- | --- | --- |
| CC(C)(COP(=O)(O)OP(=O)(O)OC[C@H]1O[C@@H](n2cnc3c(N)ncnc32)[C@H](O)[C@@H]1OP(=O)(O)O)[C@@H](O)C(=O)NCCC(=O)NCCSCC(=O)NCCCNCCCCN [1a, spermidine[N1]-CoA] | 50 to 100 µM | 50 to 100 µM | ≥ 96% | ≥ 96% |  |
| CC[C@@]1(O)C(=O)OCc2c1cc1n(c2=O)Cc2cc3ccccc3nc2-1 [camptothecin] |  |  |  |  | no effect |

Source: patent publication US9107879B1, “Methods of increasing the cytotoxicity of chemotherapeutic agents with multisubstrate inhibitors of histone, protein-lys, polyamine acetylation, and polyamine metabolism” (Vanderbilt University, priority 2010, dated 2015)
